pKi: −log10 of the molar value.
Assays:
[1] = biological target: Cathepsin S (Homo sapiens, UniProt P25774); experiment: Inhibition of human recombinant cathepsin S expressed in baculovirus by fluorescence assay
[2] = biological target: T1, Cathepsin K (Homo sapiens, UniProt P43235); experiment: Inhibition of human recombinant cathepsin K expressed in baculovirus by fluorescence assay
T1 sequence (P43235 whole entry): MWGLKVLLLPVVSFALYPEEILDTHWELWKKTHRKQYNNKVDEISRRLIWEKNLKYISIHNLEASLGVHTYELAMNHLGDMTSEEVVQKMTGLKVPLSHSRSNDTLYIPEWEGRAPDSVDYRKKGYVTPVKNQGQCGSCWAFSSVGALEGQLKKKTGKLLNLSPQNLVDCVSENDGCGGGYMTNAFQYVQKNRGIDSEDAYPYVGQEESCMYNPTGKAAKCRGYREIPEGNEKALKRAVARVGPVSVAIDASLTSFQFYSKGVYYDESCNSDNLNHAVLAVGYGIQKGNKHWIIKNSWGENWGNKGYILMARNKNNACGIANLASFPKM

[3] = biological target: Procathepsin L (Homo sapiens, UniProt P07711); experiment: Inhibition of human cathepsin L by fluorescence assay
Procathepsin L, sequence (P07711 whole entry): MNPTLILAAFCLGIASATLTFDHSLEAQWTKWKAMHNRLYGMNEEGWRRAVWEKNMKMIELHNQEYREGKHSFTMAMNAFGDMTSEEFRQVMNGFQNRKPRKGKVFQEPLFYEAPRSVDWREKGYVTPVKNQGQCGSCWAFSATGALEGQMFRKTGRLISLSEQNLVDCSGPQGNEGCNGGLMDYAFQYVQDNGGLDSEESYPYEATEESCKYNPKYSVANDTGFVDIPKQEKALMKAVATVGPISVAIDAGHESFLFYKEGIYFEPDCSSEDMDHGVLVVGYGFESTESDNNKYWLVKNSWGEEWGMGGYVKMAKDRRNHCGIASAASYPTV

Cathepsin S, sequence (P25774 whole entry): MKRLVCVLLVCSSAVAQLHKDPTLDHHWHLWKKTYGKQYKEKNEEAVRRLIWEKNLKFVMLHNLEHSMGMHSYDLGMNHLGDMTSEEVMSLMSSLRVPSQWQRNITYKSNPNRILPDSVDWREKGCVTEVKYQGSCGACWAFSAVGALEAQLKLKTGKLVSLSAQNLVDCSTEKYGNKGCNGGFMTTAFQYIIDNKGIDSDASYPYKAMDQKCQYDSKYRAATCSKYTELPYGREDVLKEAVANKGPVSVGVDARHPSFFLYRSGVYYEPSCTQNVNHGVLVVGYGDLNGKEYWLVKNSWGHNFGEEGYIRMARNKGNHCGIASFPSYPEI

| pKi [1] | pKi [2] | pKi [3] | Structure (SMILES) |
| --- | --- | --- | --- |
| 7.89 | 5.52 | 4.57 | CC[C@@H]1OCC(=O)[C@H]1NC(=O)[C@H](CC1(C)CCCC1)NC(=O)c1ccc(NS(=O)(=O)c2nc(C)cs2)cc1 |
| 7.92 | 5.82 | 5.60 | CC[C@@H]1OCC(=O)[C@H]1NC(=O)[C@H](CC1(C)CCCC1)NC(=O)c1cccc(NS(C)(=O)=O)c1 |
| 8.07 | 5.64 | 4.77 | CC[C@@H]1OCC(=O)[C@H]1NC(=O)[C@H](CC1(C)CCCC1)NC(=O)c1ccc(NS(=O)(=O)c2ncc(C)s2)cc1 |
| 6.96 | 7.01 | 4.96 | CC[C@@H]1OCC(=O)[C@H]1NC(=O)[C@H](CC1(C)CCCC1)NC(=O)c1ccc(N(C)S(C)(=O)=O)cc1 |
| 6.85 | 6.38 | 4.57 | CC[C@@H]1OCC(=O)[C@H]1NC(=O)[C@H](CC1(C)CCCC1)NC(=O)c1ccc(S(=O)(=O)NC)cc1 |
| 6.72 | 4.64 | 4.82 | CC[C@@H]1OCC(=O)[C@H]1NC(=O)[C@H](CC1(C)CCCC1)NC(=O)c1cccc(S(=O)(=O)NC)c1 |
| 6.74 | 6.02 | 4.19 | CC[C@@H]1OCC(=O)[C@H]1NC(=O)[C@H](CC1(C)CCCC1)NC(=O)c1ccc(NS(=O)(=O)C2CCCCC2)cc1 |
| 8.64 | 6.00 | 4.89 | CC[C@@H]1OCC(=O)[C@H]1NC(=O)[C@H](CC1(C)CCCC1)NC(=O)c1ccc(NS(=O)(=O)c2cccs2)cc1 |
| 8.54 | 6.30 | 4.82 | CC[C@@H]1OCC(=O)[C@H]1NC(=O)[C@H](CC1(C)CCCC1)NC(=O)c1ccc(NS(=O)(=O)C(C)C)cc1 |
| 9.10 | 6.37 | 4.96 | CC[C@@H]1OCC(=O)[C@H]1NC(=O)[C@H](CC1(C)CCCC1)NC(=O)c1ccc(NS(=O)(=O)c2ccccc2)cc1 |
| 7.51 | 6.50 | 5.00 | CC[C@@H]1OCC(=O)[C@H]1NC(=O)[C@H](CC(C)(C)C)NC(=O)c1ccsc1 |
| 8.96 | 6.02 | 5.10 | CC[C@@H]1OCC(=O)[C@H]1NC(=O)[C@H](CC1(C)CCCC1)NC(=O)c1ccc(NS(=O)(=O)c2ccc(C#N)cc2)cc1 |
| 9.10 | 6.09 | 5.07 | CC[C@@H]1OCC(=O)[C@H]1NC(=O)[C@H](CC1(C)CCCC1)NC(=O)c1ccc(NS(=O)(=O)c2ccccc2C#N)cc1 |
| 8.23 | 6.10 | 4.64 | CC[C@@H]1OCC(=O)[C@H]1NC(=O)[C@H](CC1(C)CCCC1)NC(=O)c1ccc(NS(=O)(=O)c2cccnc2Cl)cc1 |
| 8.42 | 6.01 | 4.96 | CC[C@@H]1OCC(=O)[C@H]1NC(=O)[C@H](CC1(C)CCCC1)NC(=O)c1ccc(NS(=O)(=O)c2ccccc2F)cc1 |
| 9.22 | 6.14 | 5.17 | CC[C@@H]1OCC(=O)[C@H]1NC(=O)[C@H](CC1(C)CCCC1)NC(=O)c1ccc(NS(=O)(=O)c2cccc(C#N)c2)cc1 |
| 7.52 | 5.72 | 4.64 | CC[C@@H]1OCC(=O)[C@H]1NC(=O)[C@H](CC1(C)CCCC1)NC(=O)c1ccc(NS(C)(=O)=O)cc1C |
| 7.25 | 5.66 | 4.51 | CC[C@@H]1OCC(=O)[C@H]1NC(=O)[C@H](CC1(C)CCCC1)NC(=O)c1ccc(NS(=O)(=O)c2ccccc2)nc1 |
| 8.47 | 5.82 | 4.68 | CCCCS(=O)(=O)Nc1ccc(C(=O)N[C@@H](CC2(C)CCCC2)C(=O)N[C@@H]2C(=O)CO[C@H]2CC)cc1 |
| 8.25 | 6.08 | 6.01 | CC[C@@H]1OCC(=O)[C@H]1NC(=O)[C@H](CC1(C)CCCC1)NC(=O)c1ccc(NS(C)(=O)=O)c(Cl)c1 |
| 8.35 | 6.19 | 4.62 | CC[C@@H]1OCC(=O)[C@H]1NC(=O)[C@H](CC1(C)CCCC1)NC(=O)c1ccc(NS(=O)(=O)c2nccn2C)cc1 |
| 8.08 | 5.92 | 4.82 | CC[C@@H]1OCC(=O)[C@H]1NC(=O)[C@H](CC1(C)CCCC1)NC(=O)c1ccc(NS(=O)(=O)C(F)(F)F)cc1 |
| 7.20 | 5.92 | 4.85 | CC[C@@H]1OCC(=O)[C@H]1NC(=O)[C@H](CC1(C)CCCC1)NC(=O)c1ccc(NS(C)(=O)=O)nc1 |
| 8.28 | 6.52 | 4.80 | CC[C@@H]1OCC(=O)[C@H]1NC(=O)[C@H](CC1(C)CCCC1)NC(=O)c1ccc(NS(=O)(=O)N(C)C)cc1 |

— ChEMBL document CHEMBL1143346, “Solid-phase parallel synthesis and SAR of 4-amidofuran-3-one inhibitors of cathepsin S: effect of sulfonamides P3 substituents on potency and selectivity” (Bioorg Med Chem, 2009)
